Laboratory results from patent US20230174492A1, “SUBSTITUTED CONDENSED AZINES AS ANTHELMINTIC COMPOUNDS” (Bayer Animal Health GmbH, priority 2020, published 2023).

What was measured:
Assay type in all cases: cell-based
[1] = target: D. immitis Slo-1 (Dirofilaria immitis, UniProt I0DFK5); assay: In Vitro Assay 2: D. immitis Slo-1, action at a recombinant D. immitis cell line (membrane potential, FLIPR)
[2] = test system: Nippostrongylus brasiliensis; assay: In Vitro Assay 3: Nippostrongylus brasiliensis (NIPOBR), acetylcholine esterase readout; conditions: adult worms, read-out: activity (reduction of AChE compared to negative control); for inhibition at 1 µg/mL: at 1 μg/ml; for inhibition at 10 µg/mL: at 10 μg/ml
Experimental: In Vitro Assay 3: Nippostrongylus brasiliensis (NIPOBR)
Adult Nippostrongylus brasiliensis are washed with saline buffer containing 100 U/ml penicillin, 0.1 mg/ml streptomycin and 2.5 μg/ml amphotericin B. Test compounds are dissolved in DMSO and worms are incubated in medium in a final concentration of 10 μg/ml (10 ppm) respectively 1 μg/ml (1 ppm). An aliquot of the medium is used to determine the acetylcholine esterase activity in comparison to a negative control. The principle of measuring acetylcholine esterase as readout for anthelmintic activity is described in Rapson et al (1986) and Rapson et al (1987).

[3] = test system: Nippostrongylus brasiliensis; assay: as above; conditions: read-out: activity (reduction of AChE compared to negative control)
[4] = test system: Dirofilaria immitis microfilariae; assay: In Vitro Assay 4: Dirofilaria immitis microfilariae (DIROIM L1), motility; conditions: 72 h
[5] = test system: Dirofilaria immitis third-stage larvae; assay: In Vitro Assay 5: Dirofilaria immitis (DIROIM L4), motility; conditions: 72 h

Chain of D. immitis Slo-1 (I0DFK5 1-1119): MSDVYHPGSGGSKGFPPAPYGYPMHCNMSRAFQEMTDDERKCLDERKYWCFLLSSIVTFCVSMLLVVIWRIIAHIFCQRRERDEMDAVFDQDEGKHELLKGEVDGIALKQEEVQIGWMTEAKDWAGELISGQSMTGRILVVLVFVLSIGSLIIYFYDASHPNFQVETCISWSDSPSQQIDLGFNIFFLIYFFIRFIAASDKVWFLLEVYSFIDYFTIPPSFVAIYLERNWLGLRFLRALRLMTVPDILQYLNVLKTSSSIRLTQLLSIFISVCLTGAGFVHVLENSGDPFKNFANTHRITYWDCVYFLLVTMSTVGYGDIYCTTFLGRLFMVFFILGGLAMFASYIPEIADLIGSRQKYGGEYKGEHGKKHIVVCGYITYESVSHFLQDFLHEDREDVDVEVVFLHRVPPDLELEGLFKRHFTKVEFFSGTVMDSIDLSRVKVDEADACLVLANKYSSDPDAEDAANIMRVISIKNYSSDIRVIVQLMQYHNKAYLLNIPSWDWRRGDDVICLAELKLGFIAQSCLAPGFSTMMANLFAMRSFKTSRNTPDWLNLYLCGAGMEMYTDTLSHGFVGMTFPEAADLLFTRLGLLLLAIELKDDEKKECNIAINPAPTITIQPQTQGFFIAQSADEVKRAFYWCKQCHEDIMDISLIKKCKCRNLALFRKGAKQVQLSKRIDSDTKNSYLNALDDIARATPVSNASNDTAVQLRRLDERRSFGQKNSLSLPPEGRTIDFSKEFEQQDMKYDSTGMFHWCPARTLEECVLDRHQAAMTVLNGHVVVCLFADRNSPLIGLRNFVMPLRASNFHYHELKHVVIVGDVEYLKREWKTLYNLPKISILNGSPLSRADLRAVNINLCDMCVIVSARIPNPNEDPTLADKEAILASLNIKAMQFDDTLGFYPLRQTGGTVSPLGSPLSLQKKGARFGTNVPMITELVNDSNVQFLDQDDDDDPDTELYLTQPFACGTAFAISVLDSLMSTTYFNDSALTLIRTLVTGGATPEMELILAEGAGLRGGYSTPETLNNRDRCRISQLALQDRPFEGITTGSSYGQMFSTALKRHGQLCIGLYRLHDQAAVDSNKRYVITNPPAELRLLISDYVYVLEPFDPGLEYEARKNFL

In the case of CN(C)c1c(NC(=O)C2CCOc3ccccc32)cnc2c(-c3cc(F)cc(F)c3F)cccc12 (racemic) [Example 5, N-(4-(Dimethylamino)-8-(2,3,5-trifluorophenyl)quinolin-3-yl)chroman-4-carboxamide], the EC50 [1] is reported as 0.1 to 1 µM, the inhibition at 1 µg/mL [2] is reported as > 80% and the inhibition at 10 µg/mL [2] is reported as > 80%. For the same molecule, the inhibition at 0.1 µg/mL [3] was > 80%, the EC50 [4] was < 0.1 µg/mL and the EC50 [5] was < 0.1 µg/mL.

With CN(C)c1c(NC(=O)C2CCc3ccccc32)cnc2c(-c3cc(F)cc(F)c3F)cccc12 (racemic) [Example 6, N-(4-(Dimethylamino)-8-(2,3,5-trifluorophenyl)quinolin-3-yl)-2,3-dihydro-1H-indene-1-carboxamide] the EC50 [1] was 0.1 to 1 µM, the EC50 [4] was < 0.1 µg/mL and the EC50 [5] was < 0.1 µg/mL.

O=C(Nc1cnc2c(-c3cc(F)cc(F)c3F)cccc2c1N1CCOCC1)C1CCOc2ccccc21 (racemic) [Example 7, N-(4-Morpholino-8-(2,3,5-trifluorophenyl)quinolin-3-yl)chroman-4-carboxamide] was tested, and the EC50 [1] was 0.01 to 0.1 µM, the inhibition at 1 µg/mL [2] was > 80% and the inhibition at 10 µg/mL [2] was > 80%. For the same molecule, the EC50 [4] was < 0.1 µg/mL and the EC50 [5] was < 0.1 µg/mL.

In the case of CCc1c(NC(=O)C2CCOc3ccccc32)cnc2c(-c3cc(F)cc(F)c3F)cccc12 (racemic) [Example 8, N-(4-Ethyl-8-(2,3,5-trifluorophenyl)quinolin-3-yl)chroman-4-carboxamide], the EC50 [1] is reported as 0.1 to 1 µM, the inhibition at 1 µg/mL [2] is reported as > 80% and the inhibition at 10 µg/mL [2] is reported as > 80%. For the same molecule, the EC50 [5] was < 0.1 µg/mL.

For O=C(Nc1cnc2c(-c3cc(F)cc(F)c3F)cccc2c1C1CCOCC1)C1CCOc2ccccc21 (racemic) [Example 9, N-(4-(Tetrahydro-2H-pyran-4-yl)-8-(2,3,5-trifluorophenyl)quinolin-3-yl)chroman-4-carboxamide], the EC50 [1] was 0.1 to 1 µM, the inhibition at 1 µg/mL [2] was > 80% and the inhibition at 10 µg/mL [2] was > 80%. For the same molecule, the inhibition at 0.1 µg/mL [3] was > 80%, the EC50 [4] was < 0.1 µg/mL and the EC50 [5] was < 0.1 µg/mL.

With O=C(Nc1cnc2c(-c3cc(F)cc(F)c3F)c(F)ccc2c1C1CCOCC1)C1CCOc2ccccc21 (racemic) [Example 10, N-(7-Fluoro-4-(tetrahydro-2H-pyran-4-yl)-8-(2,3,5-trifluorophenyl)quinolin-3-yl)chroman-4-carboxamide] the EC50 [1] was 0.01 to 0.1 µM, the inhibition at 1 µg/mL [2] was > 80% and the inhibition at 10 µg/mL [2] was > 80%. The inhibition at 0.1 µg/mL [3] was > 80%, the EC50 [4] was < 0.1 µg/mL and the EC50 [5] was < 0.1 µg/mL.

For CN(C)c1c(NC(=O)C2CCOc3ccccc32)cnc2c(-c3cc(F)cc(F)c3F)c(F)ccc12 (racemic) [Example 11, N-(4-(dimethylamino)-7-fluoro-8-(2,3,5-trifluorophenyl)quinolin-3-yl)chroman-4-carboxamide], the EC50 [1] was 0.01 to 0.1 µM, the inhibition at 1 µg/mL [2] was > 80% and the inhibition at 10 µg/mL [2] was > 80%. For the same molecule, the inhibition at 0.1 µg/mL [3] was > 80%, the EC50 [4] was < 0.1 µg/mL and the EC50 [5] was < 0.1 µg/mL.

CN(C)c1c(NC(=O)C2CCc3ccccc32)cnc2c(-c3cc(F)cc(F)c3F)c(F)ccc12 (racemic) [Example 12, N-(4-(dimethylamino)-7-fluoro-8-(2,3,5-trifluorophenyl)quinolin-3-yl)-2,3-dihydro-1H-indene-1-carboxamide] was tested, and the EC50 [1] was 0.1 to 1 µM, the EC50 [4] was < 0.1 µg/mL and the EC50 [5] was < 0.1 µg/mL.

For CCc1c(NC(=O)C2CCOc3ccccc32)cnc2c(-c3cc(F)cc(F)c3F)c(F)ccc12 (racemic) [Example 13, N-(4-ethyl-7-fluoro-8-(2,3,5-trifluorophenyl)quinolin-3-yl)chromane-4-carboxamide], the EC50 [1] was 0.01 to 0.1 µM, the inhibition at 1 µg/mL [2] was > 80% and the inhibition at 10 µg/mL [2] was > 80%. For the same molecule, the inhibition at 0.1 µg/mL [3] was > 80%, the EC50 [4] was < 0.1 µg/mL and the EC50 [5] was < 0.1 µg/mL.

With O=C(Nc1cnc2c(-c3cc(Cl)cc(Cl)c3)cccc2c1C1CCOCC1)C1CCc2ccccc21 (racemic) [Example 14, N-(8-(3,5-dichlorophenyl)-4-(tetrahydro-2H-pyran-4-yl)quinolin-3-yl)-2,3-dihydro-1H-indene-1-carboxamide] the EC50 [1] was 0.1 to 1 µM, the inhibition at 1 µg/mL [2] was > 80% and the inhibition at 10 µg/mL [2] was > 80%. For the same molecule, the inhibition at 0.1 µg/mL [3] was > 80%, the EC50 [4] was < 0.1 µg/mL and the EC50 [5] was < 0.1 µg/mL.

In the case of O=C(Nc1cnc2c(-c3cc(Cl)cc(Cl)c3)c(F)ccc2c1N1CCOCC1)C1CCOc2ccccc21 (racemic) [Example 15, N-(8-(3,5-dichlorophenyl)-7-fluoro-4-morpholinoquinolin-3-yl)chromane-4-carboxamide], the EC50 [1] is reported as 0.01 to 0.1 µM, the inhibition at 1 µg/mL [2] is reported as > 80% and the inhibition at 10 µg/mL [2] is reported as > 80%. The EC50 [4] was < 0.1 µg/mL and the EC50 [5] was < 0.1 µg/mL.

CCc1c(NC(=O)C2CCOc3ccccc32)cnc2c(-c3cc(Cl)cc(Cl)c3)c(F)ccc12 (racemic) [Example 16, N-(8-(3,5-dichlorophenyl)-4-ethyl-7-fluoroquinolin-3-yl)chromane-4-carboxamide] was tested, and the EC50 [1] was 0.1 to 1 µM, the inhibition at 1 µg/mL [2] was > 80% and the inhibition at 10 µg/mL [2] was > 80%. For the same molecule, the inhibition at 0.1 µg/mL [3] was > 80%, the EC50 [4] was < 0.1 µg/mL and the EC50 [5] was < 0.1 µg/mL.

For CN(C)c1c(NC(=O)C2CCOc3ccccc32)cnc2c(-c3cccc(Cl)c3Cl)c(F)ccc12 (racemic) [Example 17, N-(8-(2,3-dichlorophenyl)-4-(dimethylamino)-7-fluoroquinolin-3-yl)chroman-4-carboxamide], the EC50 [1] was 0.1 to 1 µM, the inhibition at 1 µg/mL [2] was > 80% and the inhibition at 10 µg/mL [2] was > 80%. For the same molecule, the inhibition at 0.1 µg/mL [3] was > 80%, the EC50 [4] was < 0.1 µg/mL and the EC50 [5] was < 0.1 µg/mL.

With CN(C)c1c(NC(=O)C2CCc3ccccc32)cnc2c(-c3cccc(Cl)c3Cl)c(F)ccc12 (racemic) [Example 18, N-(8-(2,3-dichlorophenyl)-4-(dimethylamino)-7-fluoroquinolin-3-yl)-2,3-dihydro-1H-indene-1-carboxamide] the EC50 [1] was 0.1 to 1 µM, the inhibition at 1 µg/mL [2] was > 80% and the inhibition at 10 µg/mL [2] was > 80%. For the same molecule, the EC50 [4] was < 0.1 µg/mL and the EC50 [5] was < 0.1 µg/mL.

In the case of CN(C)c1c(NC(=O)[C@H]2CCOc3ccccc32)cnc2c(-c3cc(F)cc(F)c3F)cccc12 [Example 1, (S)-N-(4-(dimethylamino)-8-(2,3,5-trifluorophenyl)quinolin-3-yl)chromane-4-carboxamide], the EC50 [1] is reported as 0.1 to 1 µM, the inhibition at 1 µg/mL [2] is reported as > 80% and the inhibition at 10 µg/mL [2] is reported as > 80%. For the same molecule, the EC50 [4] was < 0.1 µg/mL and the EC50 [5] was < 0.1 µg/mL.

In the case of CN(C)c1c(NC(=O)[C@@H]2CCc3ccccc32)cnc2c(-c3cc(F)cc(F)c3F)cccc12 [Example 4, (R)-N-(4-(dimethylamino)-8-(2,3,5-trifluorophenyl)quinolin-3-yl)-2,3-dihydro-1H-indene-1-carboxamide], the EC50 [1] is reported as 0.1 to 1 µM, the EC50 [4] is reported as < 0.1 µg/mL and the EC50 [5] is reported as < 0.1 µg/mL.
